{"source": "patent US9040545B2", "about": "“Heterocyclyl pyrazolopyrimidine analogues as selective JAK inhibitors” (Cellzome Limited, priority 2010, dated 2015)", "biological_target": "T1, Aurora A (Homo sapiens, UniProt O14965)", "T1 construct": "cell lysates from Jurkat cells (ATCC TIB-152) used; endogenous in cells; host or cells: Jurkat cells (ATCC TIB-152), treated with pervanadate", "T1 sequence (O14965 1-403)": "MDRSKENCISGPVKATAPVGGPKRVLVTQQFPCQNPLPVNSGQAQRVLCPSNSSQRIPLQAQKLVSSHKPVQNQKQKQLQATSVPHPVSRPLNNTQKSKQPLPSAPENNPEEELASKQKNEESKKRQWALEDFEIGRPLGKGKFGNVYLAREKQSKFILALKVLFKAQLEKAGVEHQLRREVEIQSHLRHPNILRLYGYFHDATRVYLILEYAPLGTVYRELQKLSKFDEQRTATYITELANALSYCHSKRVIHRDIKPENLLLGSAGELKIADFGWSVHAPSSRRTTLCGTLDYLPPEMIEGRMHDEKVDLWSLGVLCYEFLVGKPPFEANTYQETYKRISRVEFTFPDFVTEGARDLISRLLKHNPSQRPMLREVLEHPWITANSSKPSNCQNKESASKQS", "test": "Kinobeads assay, Aurora A", "type": "binding", "details": "for IC50: lysate of pervanadate-treated Jurkat cells, read-out: Inhibition values (IC50) Aur A"}
{"smiles": "O=C1CNCCN1c1cc(F)cc(Cn2ncc3cnc(Nc4cnn(CCO)c4)nc32)c1", "note": "[Example 63, 1-(3-Fluoro-5-((6-((1-(2-hydroxyethyl)-1H-pyrazol-4-yl)amino)-1H-pyrazolo[3,4-d]pyrimidin-1-yl)methyl)phenyl)piperazin-2-one]", "values": [{"measurement": "JAK3/AurA Fold Selectivity", "result": "10-50 Fold"}, {"measurement": "IC50", "result": "100 to 1000", "unit": "nM"}]}
{"smiles": "Cn1cc(Nc2ncc3cnn(Cc4cc(F)cc(N5CCNCC5=O)c4)c3n2)cn1", "note": "[Example 64, 1-(3-Fluoro-5-((6-((1-methyl-1H-pyrazol-4-yl)amino)-1H-pyrazolo[3,4-d]pyrimidin-1-yl)methyl)phenyl)piperazin-2-one]", "values": [{"measurement": "JAK3/AurA Fold Selectivity", "result": "10-50 Fold"}, {"measurement": "IC50", "result": "100 to 1000", "unit": "nM"}]}
{"smiles": "COC1CN(c2cccc(Cn3ncc4cnc(Nc5cnn(C)c5)nc43)c2)C1", "note": "[Example 65, 1-(3-(3-Methoxyazetidin-1-yl)benzyl)-N-(1-methyl-1H-pyrazol-4-yl)-1H-pyrazolo[3,4-d]pyrimidin-6-amine]", "values": [{"measurement": "JAK3/AurA Fold Selectivity", "result": ">50", "unit": "Fold"}, {"measurement": "IC50", "result": "1000 to 10000", "unit": "nM"}]}
{"smiles": "Cn1cc(Nc2ncc3cnn(Cc4c(F)c(F)cc(N5CCNCC5)c4F)c3n2)cn1", "note": "[Example 66, N-(1-Methyl-1H-pyrazol-4-yl)-1-(2,3,6-trifluoro-5-(piperazin-1-yl)benzyl)-1H-pyrazolo[3,4-d]pyrimidin-6-amine]", "values": [{"measurement": "JAK3/AurA Fold Selectivity", "result": "10-50 Fold"}, {"measurement": "IC50", "result": "100 to 1000", "unit": "nM"}]}
{"smiles": "Cn1cc(Nc2ncc3cnn(Cc4cccc(N5CCNCC5)c4F)c3n2)cn1", "note": "[Example 67, 1-(2-Fluoro-3-(piperazin-1-yl)benzyl)-N-(1-methyl-1H-pyrazol-4-yl)-1H-pyrazolo[3,4-d]pyrimidin-6-amine]", "values": [{"measurement": "JAK3/AurA Fold Selectivity", "result": ">50", "unit": "Fold"}, {"measurement": "IC50", "result": "100 to 1000", "unit": "nM"}]}
{"smiles": "CNC(=O)Cn1cc(Nc2ncc3cnn(Cc4cc(F)cc(N5CCOCC5=O)c4)c3n2)cn1", "note": "[Example 68, 2-(4-((1-(3-Fluoro-5-(3-oxomorpholino)benzyl)-1H-pyrazolo[3,4-d]pyrimidin-6-yl)amino)-1H-pyrazol-1-yl)-N-methylacetamide]", "values": [{"measurement": "JAK3/AurA Fold Selectivity", "result": "10-50 Fold"}, {"measurement": "IC50", "result": "100 to 1000", "unit": "nM"}]}
{"smiles": "Cn1cc(Nc2ncc3cnn(Cc4c(F)ccc(N5CCOCC5=O)c4F)c3n2)cn1", "note": "[Example 69, 4-(2,4-Difluoro-3-((6-((1-methyl-1H-pyrazol-4-yl)amino)-1H-pyrazolo[3,4-d]pyrimidin-1-yl)methyl)phenyl)morpholin-3-one]", "values": [{"measurement": "JAK3/AurA Fold Selectivity", "result": "3-10 Fold"}, {"measurement": "IC50", "result": "< 100", "unit": "nM"}]}
{"smiles": "CN(C)CCCn1cc(Nc2ncc3cnn(Cc4c(F)c(F)cc(N5CCOCC5=O)c4F)c3n2)cn1", "note": "[Example 70, 4-(3-((6-((1-(3-(Dimethylamino)propyl)-1H-pyrazol-4-yl)amino)-1H-pyrazolo[3,4-d]pyrimidin-1-yl)methyl)-2,4,5-trifluorophenyl)morpholin-3-one]", "values": [{"measurement": "JAK3/AurA Fold Selectivity", "result": ">50", "unit": "Fold"}, {"measurement": "IC50", "result": "1000 to 10000", "unit": "nM"}]}
{"smiles": "Cn1cc(Nc2ncc3cnn(Cc4cc(N5CCNCC5=O)cc(F)c4F)c3n2)cn1", "note": "[Example 71, 1-(3,4-Difluoro-5-((6-((1-methyl-1H-pyrazol-4-yl)amino)-1H-pyrazolo[3,4-d]pyrimidin-1-yl)methyl)phenyl)piperazin-2-one]", "values": [{"measurement": "JAK3/AurA Fold Selectivity", "result": "10-50 Fold"}, {"measurement": "IC50", "result": "100 to 1000", "unit": "nM"}]}
{"smiles": "O=C1CNCCN1c1cc(F)c(F)c(Cn2ncc3cnc(Nc4cnn(CCO)c4)nc32)c1", "note": "[Example 72, 1-(3,4-Difluoro-5-((6-((1-(2-hydroxyethyl)-1H-pyrazol-4-yl)amino)-1H-pyrazolo[3,4-d]pyrimidin-1-yl)methyl)phenyl)piperazin-2-one]", "values": [{"measurement": "JAK3/AurA Fold Selectivity", "result": "10-50 Fold"}, {"measurement": "IC50", "result": "100 to 1000", "unit": "nM"}]}
{"smiles": "Cn1cc(Nc2ncc3cnn(Cc4cc(F)cc(N5CCOCC5=O)c4F)c3n2)cn1", "note": "[Example 73, 4-(2,5-Difluoro-3-((6-((1-methyl-1H-pyrazol-4-yl)amino)-1H-pyrazolo[3,4-d]pyrimidin-1-yl)methyl)phenyl)morpholin-3-one]", "values": [{"measurement": "JAK3/AurA Fold Selectivity", "result": "10-50 Fold"}, {"measurement": "IC50", "result": "100 to 1000", "unit": "nM"}]}
{"smiles": "O=C1COCCN1c1cc(F)cc(Cn2ncc3cnc(Nc4cnn(CCO)c4)nc32)c1F", "note": "[Example 74, 4-(2,5-Difluoro-3-((6-((1-(2-hydroxyethyl)-1H-pyrazol-4-yl)amino)-1H-pyrazolo[3,4-d]pyrimidin-1-yl)methyl)phenyl)morpholin-3-one]", "values": [{"measurement": "JAK3/AurA Fold Selectivity", "result": "10-50 Fold"}, {"measurement": "IC50", "result": "< 100", "unit": "nM"}]}
{"smiles": "CN(C)CCCn1cc(Nc2ncc3cnn(Cc4c(F)ccc(N5CCOCC5=O)c4F)c3n2)cn1", "note": "[Example 75, 4-(3-((6-((1-(3-(Dimethylamino)propyl)-1H-pyrazol-4-yl)amino)-1H-pyrazolo[3,4-d]pyrimidin-1-yl)methyl)-2,4-difluorophenyl)morpholin-3-one]", "values": [{"measurement": "JAK3/AurA Fold Selectivity", "result": "10-50 Fold"}, {"measurement": "IC50", "result": "100 to 1000", "unit": "nM"}]}
{"smiles": "Cn1cc(Nc2ncc3cnn(Cc4c(F)ccc(N5CCNCC5=O)c4F)c3n2)cn1", "note": "[Example 76, 1-(2,4-Difluoro-3-((6-((1-methyl-1H-pyrazol-4-yl)amino)-1H-pyrazolo[3,4-d]pyrimidin-1-yl)methyl)phenyl)piperazin-2-one]", "values": [{"measurement": "JAK3/AurA Fold Selectivity", "result": "3-10 Fold"}, {"measurement": "IC50", "result": "< 100", "unit": "nM"}]}
{"smiles": "COC1CCN(c2cccc(Cn3ncc4cnc(Nc5cnn(C)c5)nc43)c2)CC1", "note": "[Example 77, 1-(3-(4-Methoxypiperidin-1-yl)benzyl)-N-(1-methyl-1H-pyrazol-4-yl)-1H-pyrazolo[3,4-d]pyrimidin-6-amine]", "values": [{"measurement": "JAK3/AurA Fold Selectivity", "result": "3-10 Fold"}, {"measurement": "IC50", "result": "100 to 1000", "unit": "nM"}]}
{"smiles": "OCCn1cc(Nc2ncc3cnn(Cc4cc(N5CCNCC5)cc(F)c4F)c3n2)cn1", "note": "[Example 78, 2-(4-((1-(2,3-Difluoro-5-(piperazin-1-yl)benzyl)-1H-pyrazolo[3,4-d]pyrimidin-6-yl)amino)-1H-pyrazol-1-yl)ethanol]", "values": [{"measurement": "JAK3/AurA Fold Selectivity", "result": "10-50 Fold"}, {"measurement": "IC50", "result": "100 to 1000", "unit": "nM"}]}
{"smiles": "Cn1cc(Nc2ncc3cnn(Cc4cc(F)cc(C(=O)N5CCOCC5)c4)c3n2)cn1", "note": "[Example 79, (3-Fluoro-5-((6-((1-methyl-1H-pyrazol-4-yl)amino)-1H-pyrazolo[3,4-d]pyrimidin-1-yl)methyl)phenyl)(morpholino)methanone]", "values": [{"measurement": "JAK3/AurA Fold Selectivity", "result": "10-50 Fold"}, {"measurement": "IC50", "result": "100 to 1000", "unit": "nM"}]}
{"smiles": "Cn1cc(Nc2ncc3cnn(Cc4cc(F)cc(C(=O)N5CCNCC5)c4)c3n2)cn1", "note": "[Example 80, (3-Fluoro-5-((6-((1-methyl-1H-pyrazol-4-yl)amino)-1H-pyrazolo[3,4-d]pyrimidin-1-yl)methyl)phenyl)(piperazin-1-yl)methanone]", "values": [{"measurement": "JAK3/AurA Fold Selectivity", "result": "3-10 Fold"}, {"measurement": "IC50", "result": "100 to 1000", "unit": "nM"}]}
{"smiles": "Fc1cc(N2CCOCC2)c(F)c(Cn2ncc3cnc(Nc4cn[nH]c4)nc32)c1F", "note": "[Example 81, N-(1H-Pyrazol-4-yl)-1-(2,3,6-trifluoro-5-morpholinobenzyl)-1H-pyrazolo[3,4-d]pyrimidin-6-amine]", "values": [{"measurement": "JAK3/AurA Fold Selectivity", "result": ">50", "unit": "Fold"}, {"measurement": "IC50", "result": "100 to 1000", "unit": "nM"}]}
{"smiles": "OCCn1cc(Nc2ncc3cnn(Cc4c(F)ccc(N5CCOCC5)c4F)c3n2)cn1", "note": "[Example 82, 2-(4-((1-(2,6-Difluoro-3-morpholinobenzyl)-1H-pyrazolo[3,4-d]pyrimidin-6-yl)amino)-1H-pyrazol-1-yl)ethanol]", "values": [{"measurement": "JAK3/AurA Fold Selectivity", "result": "3-10 Fold"}, {"measurement": "IC50", "result": "100 to 1000", "unit": "nM"}]}
{"smiles": "OCCn1cc(Nc2ncc3cnn(Cc4cccc(N5CCNCC5)c4F)c3n2)cn1", "note": "[Example 83, 2-(4-((1-(2-Fluoro-3-(piperazin-1-yl)benzyl)-1H-pyrazolo[3,4-d]pyrimidin-6-yl)amino)-1H-pyrazol-1-yl)ethanol]", "values": [{"measurement": "JAK3/AurA Fold Selectivity", "result": "10-50 Fold"}, {"measurement": "IC50", "result": "100 to 1000", "unit": "nM"}]}
